Measured values reported in publication PMC5357725, “Global update on the susceptibility of human influenza viruses to neuraminidase inhibitors, 2014–2015” (Antiviral Research, 2016).

Legend:
[1] = target: B/Victoria-lineage neuraminidase (NA); format: biochemical, influenza B/Victoria-lineage virus
[2] = system: A(H1N1)pdm09 neuraminidase (NA); format: biochemical, influenza A(H1N1)pdm09 virus

CCC(CC)[C@H](NC(C)=O)[C@@H]1[C@H](O)[C@@H](C(=O)O)C[C@H]1N=C(N)N [Peramivir, peramivir]
IC50 values fold higher than the median [1]: 8- to 14 fold

[H]/N=C(\N)N[C@H]1C=C(C(=O)O)O[C@@H]([C@H](OC)[C@H](O)CO)[C@@H]1NC(C)=O [Laninamivir, laninamivir]
inhibition class (NI, RI, HRI) [2]: NI (key: normal inhibition (NI) (A viruses <10-fold; reduced inhibition (RI) (A viruses 10- to 100-fold; highly reduced inhibition (HRI) (A viruses >100-fold)
